From patent EP4741386A1 (Jiangsu Yahong Meditech Co., Ltd., priority 2023, dated 2025) come the findings set out here.

Molecules are shown by their SMILES.

For test [1], the target named is T1, Recombinant human His6-USP1/His6-UAF1 complex protein (Homo sapiens, UniProt O94782).
T1 construct: His6; purchased R&D E-568-050
Put plainly: In vitro inhibitory activity against USP1 (Ubiquitin Rhodamine 110 fluorescence detection, 384-well plate). The test is classed as biochemical. The conditions noted are these: Ub-Rho substrate, 1 hour pre-incubation, read after 30 minutes. In short, it runs like this:
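Fluorescence assay measuring inhibition of recombinant human His6-USP1/His6-UAF1 complex with Ubiquitin-Rhodamine 110 substrate. Compounds held as 50 mM stocks in 100% DMSO and dispensed by acoustic transfer into modified Tris assay buffer.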

Test [2] deals with MDA-MB-436. Put plainly: CTG experiment for cell viability (CellTiter-Glo, 96-well plate, 7 days). The test is classed as cell-based. The note with it: Homo sapiens, MDA-MB-436, 168 h, MDA-MB-436 cells, 7 days culture with compound. In short, it runs like this:
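MDA-MB-436 cells in DMEM were plated in 96-well format, treated with compounds, and cultured 7 days at 37°C. After removing the medium, cells were given PBS plus CellTiter-Glo reagent, incubated 10 min at room temperature, and luminescence was read. Curves were fitted as for the enzyme assay.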

T1 sequence (O94782 whole entry): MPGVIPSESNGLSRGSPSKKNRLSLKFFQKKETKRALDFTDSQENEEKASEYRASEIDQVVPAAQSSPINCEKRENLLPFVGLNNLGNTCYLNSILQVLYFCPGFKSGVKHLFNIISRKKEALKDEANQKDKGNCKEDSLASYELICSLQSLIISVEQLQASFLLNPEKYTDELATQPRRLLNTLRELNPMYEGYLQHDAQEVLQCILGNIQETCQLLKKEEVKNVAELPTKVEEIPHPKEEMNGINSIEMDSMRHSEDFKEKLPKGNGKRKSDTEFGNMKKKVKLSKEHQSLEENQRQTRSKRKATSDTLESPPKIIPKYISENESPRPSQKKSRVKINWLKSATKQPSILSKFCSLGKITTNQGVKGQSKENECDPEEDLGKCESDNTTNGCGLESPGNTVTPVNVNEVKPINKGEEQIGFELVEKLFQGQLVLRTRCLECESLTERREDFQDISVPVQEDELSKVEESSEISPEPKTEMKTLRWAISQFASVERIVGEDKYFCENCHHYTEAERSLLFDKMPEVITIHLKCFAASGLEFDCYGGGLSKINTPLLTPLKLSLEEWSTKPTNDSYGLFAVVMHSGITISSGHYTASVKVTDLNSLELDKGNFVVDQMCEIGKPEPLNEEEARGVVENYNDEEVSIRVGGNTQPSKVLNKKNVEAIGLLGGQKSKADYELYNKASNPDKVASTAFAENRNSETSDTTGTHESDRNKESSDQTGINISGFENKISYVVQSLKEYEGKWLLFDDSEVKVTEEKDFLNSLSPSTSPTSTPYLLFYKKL
T1 sequence (Q8TAF3 whole entry partner): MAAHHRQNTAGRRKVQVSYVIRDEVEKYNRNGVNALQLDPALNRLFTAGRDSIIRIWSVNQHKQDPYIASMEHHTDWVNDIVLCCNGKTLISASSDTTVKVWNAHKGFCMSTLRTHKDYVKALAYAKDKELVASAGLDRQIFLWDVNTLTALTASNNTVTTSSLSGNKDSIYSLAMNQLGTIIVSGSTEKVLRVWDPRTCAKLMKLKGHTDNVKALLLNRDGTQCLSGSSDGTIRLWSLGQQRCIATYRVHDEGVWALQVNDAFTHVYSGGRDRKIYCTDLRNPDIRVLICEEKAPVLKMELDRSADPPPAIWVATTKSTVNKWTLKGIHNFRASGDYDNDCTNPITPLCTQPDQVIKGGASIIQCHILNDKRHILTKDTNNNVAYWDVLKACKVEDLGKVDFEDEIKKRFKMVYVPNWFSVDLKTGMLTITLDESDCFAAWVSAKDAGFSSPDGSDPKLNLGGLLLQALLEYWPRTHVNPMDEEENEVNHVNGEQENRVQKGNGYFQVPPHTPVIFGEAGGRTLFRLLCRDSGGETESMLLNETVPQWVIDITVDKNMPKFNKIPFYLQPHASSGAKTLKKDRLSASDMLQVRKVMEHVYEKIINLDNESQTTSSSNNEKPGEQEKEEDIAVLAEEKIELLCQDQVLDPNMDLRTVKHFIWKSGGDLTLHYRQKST

As a reminder, the IC50 is the point on the concentration scale where inhibition reaches its midpoint. For the compound `COc1cnc(-c2cccnc2C(C)C)nc1NCC12C3C4C1C1C2C3C41c1nc(C(F)(F)F)cn1C` (centres unmarked) [Example S42, 2-(2-isopropylpyridin-3-yl)-5-methoxy-N-((4-(1-methyl-4-(trifluoromethyl)-1H-imidazol-2-yl)cuban-1-yl)methyl)pyrimidin-4-amine], the IC50 stood at 1.2 nM in test [1] and 3.5 nM in test [2].
Taken in the same sequence, the figures for `COc1ncnc(C2CC2)c1-c1nc(NCc2ccc(-c3nc(C(F)(F)F)cn3C)cc2)c2occc2n1` [Example 35, 2-(4-Cyclopropyl-6-methoxypyrimidin-5-yl)-N-(4-(1-methyl-4-(trifluoromethyl)-1H-imidazol-2-yl)benzyl)furo[3,2-d]pyrimidin-4-amine] were 9.6 nM and 45 nM.
`COc1cnc(-c2c(C)cnn2C(C)C)nc1N(C)Cc1ccc(-n2nc(C(F)(F)F)cc2C)cc1` [Example 201, 2-(1-Isopropyl-4-methyl-1H-pyrazol-5-yl)-5-methoxy-N-methyl-N-(4-(5-methyl-3-(trifluoromethyl)-1H-pyrazol-1-yl)benzyl)pyrimidin-4-amine]: the half-maximal inhibitory concentration (IC50) in test [1] was 12 nM; in test [2] it was 40.5 nM.
Taken in the same sequence, the figures for `COc1cc(CNc2nc(-c3ccccc3C3CC3)nc3ccoc23)ccc1-c1nc(C(F)(F)F)cn1C` [Example 176, 2-(2-Cyclopropylphenyl)-N-(3-methoxy-4-(1-methyl-4-(trifluoromethyl)-1H-imidazol-2-yl)benzyl)furo[3,2-d]pyrimidin-4-amine] were 4 nM and 187 nM.
Taken in the same sequence, the figures for `COc1cnc(-c2ccccc2C(C)C)nc1NCC1CCN(c2nc(C(F)(F)F)cn2C)CC1` [Example 65, 2-(2-Isopropylphenyl)-5-methoxy-N-((1-(1-methyl-4-(trifluoromethyl)-1H-imidazol-2-yl)piperidin-4-yl)methyl)pyrimidin-4-amine] were 2.1 nM and 2.4 nM.
The matching figures for `COc1cnn(C2CC2)c1-c1ncc(OC(F)F)c(NCc2ccc(-c3nc(C(F)(F)F)cn3C)cc2)n1` [Example 185, 2-(1-Cyclopropyl-4-methoxy-1H-pyrazol-5-yl)-5-(difluoromethoxy)-N-(4-(1-methyl-4-(trifluoromethyl)-1H-imidazol-2-yl)benzyl)pyrimidin-4-amine]: 9.8 nM and 120 nM.
Take `COc1ncnc(C2CC2)c1-c1nc(NCc2ccc(OCc3ccccn3)cc2)c2occc2n1` [Example 116, 2-(4-Cyclopropyl-6-methoxypyrimidin-5-yl)-N-(4-(pyridin-2-ylmethoxy)benzyl)furo[3,2-d]pyrimidin-4-amine]: the IC50 came out at 19.4 nM in test [1] and 536 nM in test [2].
For `COc1cnc(-c2ccccc2C(C)C)nc1NCc1ccc(-c2ccccn2)cc1` [Example 64, 2-(2-Isopropylphenyl)-5-methoxy-N-(4-(pyridin-2-yl)benzyl)pyrimidin-4-amine], the half-inhibitory concentration (IC50) in test [1] came out at 3.7 nM; in test [2] it was 6.3 nM.
The matching figures for `COc1ncnc(C2CC2)c1-c1ncc(C#N)c(NCc2ccc(-c3nc(C(F)(F)F)cn3C)cc2)n1` [Example 131, 4'-Cyclopropyl-6'-methoxy-4-((4-(1-methyl-4-(trifluoromethyl)-1H-imidazol-2-yl)benzyl)amino)-[2,5'-bipyrimidine]-5-carbonitrile]: 7.4 nM and 45.5 nM.
In the case of `COc1cnc(-c2ccccc2C2CC2)nc1NCc1ccc(-c2nc(C(F)(F)F)cn2C)cc1` [Example 169, 2-(2-Cyclopropylphenyl)-5-methoxy-N-(4-(1-methyl-4-(trifluoromethyl)-1H-imidazol-2-yl)benzyl)pyrimidin-4-amine], the values for the 50% inhibitory concentration (IC50) in test [1] and in test [2] were 0.8 nM and 0.4 nM, respectively.
Taken in the same sequence, the figures for `COc1cc(-c2nc(C(F)(F)F)cn2C)ccc1CNc1nc(-c2ccccc2C(C)C)nc2ccoc12` [Example 81, 2-(2-Isopropylphenyl)-N-(2-methoxy-4-(1-methyl-4-(trifluoromethyl)-1H-imidazol-2-yl)benzyl)furo[3,2-d]pyrimidin-4-amine] were 3.7 nM and 66.1 nM.
The matching figures for `COc1cnc(-c2ccccc2C(C)C)nc1N(C)CC1CCN(c2ccccn2)CC1` [Example 2, 2-(2-Isopropylphenyl)-5-methoxy-N-methyl-N-((1-(pyridin-2-yl)piperidin-4-yl)methyl)pyrimidin-4-amine]: 14 nM and 0.1 nM.
Take `COc1cnc(-c2c(C)cnn2C2CC2)nc1N(C)Cc1ccc(-c2nc(C(F)(F)F)cn2C)cc1` [Example 198, 2-(1-Cyclopropyl-4-methyl-1H-pyrazol-5-yl)-5-methoxy-N-methyl-N-(4-(1-methyl-4-(trifluoromethyl)-1H-imidazol-2-yl)benzyl)pyrimidin-4-amine]: the IC50 turned out to be 3.2 nM in test [1] and 5.6 nM in test [2].
The matching figures for `COc1cnc(-c2c(OC)ncnc2C2CC2)nc1NCc1ccc(-n2nc(C(F)(F)F)cc2C)cc1` [Example 26, 4'-Cyclopropyl-5,6'-dimethoxy-N-(4-(5-methyl-3-(trifluoromethyl)-1H-pyrazol-1-yl)benzyl)-[2,5'-bipyrimidin]-4-amine]: 4.6 nM and 0.9 nM.
The matching figures for `COc1cnc(-c2c(OC)cnn2C(C)C)nc1NCc1ccc(-c2nc(C(F)(F)F)cn2C)cc1` [Example 180, 2-(1-Isopropyl-4-methoxy-1H-pyrazol-5-yl)-5-methoxy-N-(4-(1-methyl-4-(trifluoromethyl)-1H-imidazol-2-yl)benzyl)pyrimidin-4-amine]: 15 nM and 123 nM.
On to `c1ccc(-c2ccc(CNc3nc(-c4cccnc4C4CC4)nc4ccoc34)cc2)nc1` [Example 155, 2-(2-Cyclopropylpyridin-3-yl)-N-(4-(pyridin-2-yl)benzyl)furo[3,2-d]pyrimidin-4-amine], for which the IC50 was 12 nM in test [1] and 85.7 nM in test [2].
The matching figures for `COc1cc(-c2nc(C(F)(F)F)cn2C)ccc1CNc1nc(-c2c(OC)ncnc2C2CC2)nc2ccoc12` [Example 119, 2-(4-Cyclopropyl-6-methoxypyrimidin-5-yl)-N-(2-methoxy-4-(1-methyl-4-(trifluoromethyl)-1H-imidazol-2-yl)benzyl)furo[3,2-d]pyrimidin-4-amine]: 7.6 nM and 16.9 nM.
Taken in the same sequence, the figures for `COc1cc(CNc2nc(-c3ccccc3C(C)C)nc3ccoc23)ccc1-c1nc(C(F)(F)F)cn1C` [Example 82, 2-(2-Isopropylphenyl)-N-(3-methoxy-4-(1-methyl-4-(trifluoromethyl)-1H-imidazol-2-yl)benzyl)furo[3,2-d]pyrimidin-4-amine] were 1.7 nM and 278 nM.
Taken in the same sequence, the figures for `CC(C)c1ccccc1-c1ncc(Cl)c(NCc2ccc(-c3nc(C(F)(F)F)cn3C)cc2)n1` [Example 38, 5-Chloro-2-(2-isopropylphenyl)-N-(4-(1-methyl-4-(trifluoromethyl)-1H-imidazol-2-yl)benzyl)pyrimidin-4-amine] were 1.1 nM and 13.7 nM.
In the case of `COc1cc(CNc2nc(-c3ccccc3C(C)C)ncc2OC)ccc1-n1nc(C(F)(F)F)cc1C` [Example 69, 2-(2-Isopropylphenyl)-5-methoxy-N-(3-methoxy-4-(5-methyl-3-(trifluoromethyl)-1H-pyrazol-1-yl)benzyl)pyrimidin-4-amine], the results for the IC50 in test [1] and in test [2] were 9.2 nM and 709 nM, respectively.
The matching figures for `C#CCN(Cc1ccc(-c2nc(C(F)(F)F)cn2C)cc1)c1nc(-c2c(OC)ncnc2C2CC2)ncc1OC` [Example 139, 4'-Cyclopropyl-5,6'-dimethoxy-N-(4-(1-methyl-4-(trifluoromethyl)-1H-imidazol-2-yl)benzyl)-N-(prop-2-yn-1-yl)-[2,5'-bipyrimidin]-4-amine]: 5.2 nM and 5 nM.
The matching figures for `COc1cnc(-c2c(OC)ncnc2C2CC2)nc1NCC12CCC(c3nc(C(F)(F)F)cn3C)(CC1)OC2` [Example 210]: 85 nM and 169 nM.
